Measurements reported in publication PMC5931594, “Substrate-bound outward-open structure of a Na^+-coupled sialic acid symporter reveals a new Na^+ site” (Nature Communications, 2018).
Read-outs that look alike come from different tables or passages of the source.

Target: T1, SiaT (Proteus mirabilis, UniProt B4EZY7)
T1 construct: full-length, C-terminal HRV 3C site-GFP-8xHis tag cleaved by 3C protease; reconstituted in proteoliposomes for uptake
Assay: microscale thermophoresis, label-free
Format: binding
Conditions: PBS, 0.0174% DDM

T1 sequence (B4EZY7 whole entry): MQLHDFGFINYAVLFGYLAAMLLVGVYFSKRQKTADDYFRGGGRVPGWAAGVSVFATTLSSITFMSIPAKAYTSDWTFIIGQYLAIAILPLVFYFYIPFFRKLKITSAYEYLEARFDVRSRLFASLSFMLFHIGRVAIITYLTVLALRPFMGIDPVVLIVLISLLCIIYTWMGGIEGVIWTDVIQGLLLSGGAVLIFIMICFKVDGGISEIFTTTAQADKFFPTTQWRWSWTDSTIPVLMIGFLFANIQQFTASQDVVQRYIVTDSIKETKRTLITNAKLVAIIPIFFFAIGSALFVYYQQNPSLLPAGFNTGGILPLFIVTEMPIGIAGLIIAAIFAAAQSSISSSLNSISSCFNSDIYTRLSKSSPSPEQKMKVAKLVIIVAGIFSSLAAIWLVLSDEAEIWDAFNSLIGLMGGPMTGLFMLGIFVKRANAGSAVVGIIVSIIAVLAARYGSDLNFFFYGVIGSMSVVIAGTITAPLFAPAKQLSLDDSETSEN

| Compound | Kd [µM] | Kd (read-out: Kd^Neu5Gc) [µM] |
| --- | --- | --- |
| O=C(O)C1(O)C[C@H](O)[C@@H](O)[C@H]([C@H](O)[C@H](O)CO)O1 (some centres unmarked) [ketodeoxynonulosonic acid] | > 10000 |  |
| O=C(CO)N[C@H]1[C@H]([C@H](O)[C@H](O)CO)OC(O)(C(=O)O)C[C@@H]1O (some centres unmarked) [N-glycolylneuraminic acid] |  | 85 ± 2 |
